Test results taken from the supplement of paper PMC4862054.

Legend:
CAL-148 [1] = assay: drug sensitivity score (DSS), CellTiter-Glo (DSS (AUC-based score)); higher = stronger drug effect (viability inhibition or cytotoxicity); extreme values may be limits of the assay; details: incubation time: 72 h
In short: (§1)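 Each compound occupied 5 concentrations in 10-fold steps over its own 10,000-fold range in 384-well plates, into which breast cancer cell lines were seeded as 20 µl suspension. Following 72 h of incubation, CellTox Green fluorescence (485/520 nm) was measured, and CellTiter-Glo luminescence was measured after 10 min at room temperature. Plates were individually normalised to 0.1 % DMSO and a positive kill control. From the area under the fitted dose-response curve, a drug sensitivity score was calculated.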

BT-549 = assay: as above; details: incubation time: 72 h
In short: as §1

MFM-223 = assay: as above; details: incubation time: 72 h
In short: as §1

BT-474 [2] = assay: as above; details: incubation time: 72 h
In short: as §1

CAL-51 [3] = assay: as above; details: incubation time: 72 h
In short: as §1

HDQ-P1 [4] = assay: as above; details: incubation time: 72 h
In short: as §1

MDA-MB-436 [5] = assay: as above; details: incubation time: 72 h
In short: as §1

HCC1599 = assay: as above; details: incubation time: 72 h
In short: as §1

CAL-51 [6] = details: 72 h
In short: (§2)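 Breast cancer cell lines (20 µl suspension) were seeded into 384-well plates holding compound at 5 concentrations in 10-fold steps over a compound-specific 10,000-fold range, then incubated 72 h. Cell death was read first by CellTox Green fluorescence (485/520 nm), then viability by CellTiter-Glo luminescence after 10 min at room temperature. Each plate was normalised to 0.1 % DMSO and a positive kill control. EC50 was fitted from the dose-response curves and censored at the top concentration.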

MDA-MB-468 [7] = details: 72 h
In short: as §2

BT-474 [8] = details: 72 h
In short: as §2

CAL-120 = details: 72 h
In short: (§3)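 Plates of 384 wells holding compound in 5 µl medium received breast cancer cell lines in 20 µl suspension and were incubated 72 h. CellTiter-Blue (2.5 µl, 2 h, 37 °C) was used for viability, read at 560/590 nm, and every plate was normalised to vehicle and a positive kill control and assessed by Z'-factor. The EC50 derives from a percent-inhibition dose-response curve fit censored at the highest concentration, leaving out rows whose drug sensitivity score was zero.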

MDA-MB-231 = details: 72 h
In short: as §3

HCC1937 [9] = details: 72 h
In short: as §3

CAL-85-1 = assay: normalised viability (% of control), CellTiter-Blue; higher = more viable cells (about 100 = DMSO control); details: incubation time: 72 h
Protocol: (§4)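 DSRT, CellTiter-Blue viability, 72 h incubation. Signal is normalised to DMSO and benzethonium chloride controls. Value is the normalised response at dose 9.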

CAL-148 [10] = assay: as above; details: incubation time: 72 h
Protocol: as §4

MDA-MB-453 = assay: as above; details: incubation time: 72 h
Protocol: as §4

CAL-51 [11] = assay: as above; details: incubation time: 72 h
Protocol: as §4

HDQ-P1 [12] = assay: as above; details: incubation time: 72 h
Protocol: as §4

DU-4475 = assay: as above; details: incubation time: 72 h
Protocol: as §4

MDA-MB-468 [13] = assay: normalised response (% of control), CellTiter-Glo; higher = more viable cells (100 = DMSO, 0 = benzethonium chloride kill control); details: incubation time: 72 h
In short: (§5)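 Compound was dispensed into 384-well plates at 5 concentrations in 10-fold steps spanning a 10,000-fold range specific to that compound. Breast cancer cell lines were added as 20 µl suspension and left for 72 h before CellTox Green fluorescence (485/520 nm) and then CellTiter-Glo luminescence, read after 10 min at room temperature. Each reported value is the normalised signal at one concentration, with 0.1 % DMSO set at 100 and a positive kill control at 0 on each plate.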

SK-BR-3 = assay: as above; details: incubation time: 72 h
In short: as §5

HCC1937 [14] = assay: as above; details: incubation time: 72 h
In short: as §5

MDA-MB-436 [15] = assay: as above; details: incubation time: 72 h
In short: as §5

HCC1143 = assay: as above; details: incubation time: 72 h
In short: as §5

Row | EC50, CellTiter-Glo (MDA-MB-468 [7]) | EC50, CellTiter-Glo (BT-474 [8]) | EC50, CellTiter-Blue viability (MDA-MB-231) | EC50, CellTiter-Blue viability (HCC1937 [9]) | Compound | drug sensitivity score (CAL-148 [1]) | drug sensitivity score (BT-549) | drug sensitivity score (MFM-223) | drug sensitivity score (BT-474 [2]) | drug sensitivity score (CAL-51 [3]) | drug sensitivity score (HDQ-P1 [4]) | drug sensitivity score (MDA-MB-436 [5]) | drug sensitivity score (HCC1599) | EC50, CellTiter-Glo (CAL-51 [6]) | EC50, CellTiter-Blue viability (CAL-120) | normalised viability (CAL-85-1) | normalised viability (CAL-148 [10]) | normalised viability (MDA-MB-453) | normalised viability (CAL-51 [11]) | normalised viability (HDQ-P1 [12]) | normalised viability (DU-4475) | normalised response (MDA-MB-468 [13]) | normalised response (SK-BR-3) | normalised response (HCC1937 [14]) | normalised response (MDA-MB-436 [15]) | normalised response (HCC1143)
1 |  |  |  |  | CC1(C)NC(=O)N(c2ccc([N+](=O)[O-])c(C(F)(F)F)c2)C1=O [Nilutamide] | 0 | 0 | 0 | 0 | 2.72 | 0 | 0 | 0 | 724 nM |  |  |  |  |  |  |  |  |  |  |  | 
2 | > 1000 nM | 244 nM |  |  | Cc1ccc(C(=O)Nc2ccc(CN3CCN(C)CC3)c(C(F)(F)F)c2)cc1C#Cc1cnc2cccnn12 [Ponatinib] |  |  |  |  |  |  |  |  | 844 nM | 190 nM |  |  |  |  |  |  |  |  |  |  | 
3 | 142 nM | 692 nM | 141 nM | 99.1 nM | Cn1c(Nc2ccc(C(F)(F)F)cc2)nc2cc(Oc3ccnc(-c4ncc(C(F)(F)F)[nH]4)c3)ccc21 [RAF265] | 0 | 1.66 | 2.07 | 0.538 | 0 | 5.82 | 2.94 | 0 |  | 77.8 nM |  |  |  |  |  |  |  |  |  |  | 
4 |  |  |  |  | CS(=O)(=O)c1ccc(C2=C(c3ccccc3)C(=O)OC2)cc1 [Rofecoxib] | 0 | 0 | 0 | 0 | 0.464 | 0 | 0 | 0 | > 10000 nM |  |  |  |  |  |  |  |  |  |  |  | 
5 | 1710 nM |  | 683 nM | 945 nM | CNCc1ccc(-c2[nH]c3cc(F)cc4c3c2CCNC4=O)cc1 [Rucaparib] | 1.62 | 0.12 | 0 | 1.39 | 0 | 0 | 1.14 | 0 |  |  |  |  |  |  |  |  |  |  |  |  | 
6 |  |  | 955 nM | 715 nM | N[C@@H](CSC(c1ccccc1)(c1ccccc1)c1ccccc1)C(=O)O [S-trityl-L-cysteine] | 0 | 0 | 0 | 0 | 0 | 0 | 0 | 0 |  | 2000 nM |  |  |  |  |  |  |  |  |  |  | 
7 |  |  |  | 85.3 nM | CN(N=O)C(=O)N[C@@H](C=O)[C@@H](O)[C@H](O)[C@H](O)CO [Streptozocin] | 0 | 0 | 0 | 0 | 0 | 0 | 0 | 0 |  |  |  |  |  |  |  |  |  |  |  |  | 
8 | 1730 nM | 3650 nM |  |  | O=C(CCCCCCC(=O)Nc1ccc([C@H]2O[C@@H](CSc3nc(-c4ccccc4)c(-c4ccccc4)o3)C[C@@H](c3ccc(CO)cc3)O2)cc1)NO [Tubacin] | 0.986 | 2.95 | 4.83 | 4.89 | 5.04 | 2.55 | 0 | 4.67 | 4570 nM |  |  |  |  |  |  |  |  |  |  |  | 
9 |  |  |  |  | CN[C@@H]1C[C@H]2O[C@@](C)([C@@H]1OC)n1c3ccccc3c3c4c(c5c6ccccc6n2c5c31)C(=O)N[C@H]4O [UCN-01] (10000 nM) |  |  |  |  |  |  |  |  |  |  | 1.96% | 3.64% | 2.09% | 5.97% | 2.76% | 2.14% | 1.36% | 2.06% | 7.74% | 7.46% | 8.19%
10 |  |  |  |  | Clc1ccc(Nc2nnc(Cc3ccncc3)c3ccccc23)cc1 [Vatalanib] (10000 nM) |  |  |  |  |  |  |  |  |  |  | 83.2% | 84.5% | 91.1% | 99.4% | 90.6% | 102% | 75.2% | 95.5% | 96% | 109% | 98.3%
11 |  | 350 nM | 2590 nM |  | Oc1nc(-c2ccc(C(F)(F)F)cc2)nc2c1CSCC2 [XAV-939] | 0 | 0 | 0 | 3.54 | 8.6 | 0 | 0 | 0 | 12.6 nM |  |  |  |  |  |  |  |  |  |  |  | 
12 |  |  |  |  | Oc1nc(-c2ccc(C(F)(F)F)cc2)nc2c1CSCC2 [XAV-939] (10000 nM) |  |  |  |  |  |  |  |  |  |  | 82.3% | 76.9% | 71.5% | 89.2% | 76.2% | 100% | 92.1% | 84.5% | 89.7% | 91.8% | 91.4%
